According to article PMC7365685 (ACS chemical biology, 2019):
Positions count from the first letter of the chain named.

Tests used:
[1] = target: T1, dopamine D2 receptor (D2R; D2SR; SNAP-D2SR) (Homo sapiens, UniProt P14416); test: [3H]spiperone competition binding
[2] = target: T1, dopamine D2 receptor (D2R; D2SR; SNAP-D2SR); test: inhibition of forskolin-stimulated cAMP; assay type: cell-based; conditions: functional affinity; receptor alkylation with phenoxybenzamine
[3] = target: N186^ECL2A D2R (Homo sapiens, UniProt P14416, N186A); test: biochemical; design: species or system FlpIn CHO
[4] = target: L174^ECL2A D2R (Homo sapiens, UniProt P14416, L174A); test: biochemical; design: species or system FlpIn CHO
[5] = target: T2, I122^3.40A D2R (Homo sapiens, UniProt P14416, I122A); test: biochemical; design: species or system FlpIn CHO
T2 sequence (P14416 1-443 I122A): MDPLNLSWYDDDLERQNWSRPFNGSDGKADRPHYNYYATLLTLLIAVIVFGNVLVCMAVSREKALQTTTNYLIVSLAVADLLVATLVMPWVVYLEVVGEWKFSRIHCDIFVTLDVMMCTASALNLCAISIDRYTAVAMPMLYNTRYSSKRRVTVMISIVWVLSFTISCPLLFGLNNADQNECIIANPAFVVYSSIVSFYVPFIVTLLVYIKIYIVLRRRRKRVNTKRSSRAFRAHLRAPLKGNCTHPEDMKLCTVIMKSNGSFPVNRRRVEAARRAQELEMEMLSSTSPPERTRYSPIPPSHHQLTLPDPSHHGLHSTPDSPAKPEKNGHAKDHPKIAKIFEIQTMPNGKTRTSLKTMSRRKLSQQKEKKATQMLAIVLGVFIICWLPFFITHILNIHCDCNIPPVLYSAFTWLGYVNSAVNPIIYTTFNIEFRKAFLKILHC

[6] = target: dopamine D2 receptor (D2R; D2SR; SNAP-D2SR) (Homo sapiens, UniProt P14416, F110A); test: biochemical
[7] = target: dopamine D2 receptor (D2R; D2SR; SNAP-D2SR) (Homo sapiens, UniProt P14416, S193A); test: biochemical
[8] = target: T3, V115^3.33A D2R (Homo sapiens, UniProt P14416, V115A); test: biochemical
T3 sequence (P14416 1-443 V115A): T2 sequence (P14416 1-443 I122A) with V115A, A122I

[9] = target: T4, C118^3.36A D2R (Homo sapiens, UniProt P14416, C118A); test: biochemical
T4 sequence (P14416 1-443 C118A): T2 sequence (P14416 1-443 I122A) with C118A, A122I

[10] = target: E181^ECL2A D2R (Homo sapiens, UniProt P14416, E181A); test: biochemical
[11] = target: dopamine D2 receptor (D2R; D2SR; SNAP-D2SR) (Homo sapiens, UniProt P14416, F202A); test: biochemical
[12] = target: S197^5.46A D2R (Homo sapiens, UniProt P14416, S197A); test: biochemical
[13] = target: I183^ECL2A D2R (Homo sapiens, UniProt P14416, I183A); test: biochemical
[14] = target: T5, T119^3.37A D2R (Homo sapiens, UniProt P14416, T119A); test: biochemical
T5 sequence (P14416 1-443 T119A): T2 sequence (P14416 1-443 I122A) with T119A, A122I

[15] = target: T1, dopamine D2 receptor (D2R; D2SR; SNAP-D2SR); test: inhibition of forskolin-stimulated cAMP; assay type: cell-based; conditions: functional affinity (dissociation constant of coupled receptor); partial agonist

T1 sequence (P14416 1-414 isoform P14416-2): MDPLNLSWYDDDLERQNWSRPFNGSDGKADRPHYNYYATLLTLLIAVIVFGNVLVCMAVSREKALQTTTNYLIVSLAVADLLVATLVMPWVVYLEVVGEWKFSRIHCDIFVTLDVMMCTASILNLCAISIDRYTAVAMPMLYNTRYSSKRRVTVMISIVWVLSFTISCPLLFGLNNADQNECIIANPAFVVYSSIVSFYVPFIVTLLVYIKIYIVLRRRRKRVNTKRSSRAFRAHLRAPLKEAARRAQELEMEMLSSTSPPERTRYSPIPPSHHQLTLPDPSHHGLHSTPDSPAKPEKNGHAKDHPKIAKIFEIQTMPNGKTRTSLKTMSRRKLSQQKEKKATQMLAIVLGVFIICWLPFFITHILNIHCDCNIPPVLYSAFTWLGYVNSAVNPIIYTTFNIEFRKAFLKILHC
Sequence of L174^ECL2A D2R (P14416 whole entry L174A): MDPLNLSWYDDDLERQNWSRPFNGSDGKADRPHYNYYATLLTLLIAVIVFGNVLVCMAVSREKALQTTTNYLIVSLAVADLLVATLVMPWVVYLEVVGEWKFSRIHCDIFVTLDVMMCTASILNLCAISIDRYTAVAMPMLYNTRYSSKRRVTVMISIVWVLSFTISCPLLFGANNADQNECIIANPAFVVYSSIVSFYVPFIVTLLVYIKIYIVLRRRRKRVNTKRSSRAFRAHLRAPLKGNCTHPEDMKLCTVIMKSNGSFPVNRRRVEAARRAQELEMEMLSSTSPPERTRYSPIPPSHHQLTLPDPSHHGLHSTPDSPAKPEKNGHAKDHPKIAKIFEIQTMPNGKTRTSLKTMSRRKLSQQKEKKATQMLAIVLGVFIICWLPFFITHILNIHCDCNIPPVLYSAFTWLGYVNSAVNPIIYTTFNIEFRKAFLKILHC
Sequence of dopamine D2 receptor (D2R; D2SR; SNAP-D2SR) (Homo sapiens, UniProt P14416, S193A) (P14416 1-414 isoform P14416-2 S193A): as the sequence (P14416 1-414 isoform P14416-2) above, with S193A counted along it
Sequence of I183^ECL2A D2R (P14416 whole entry I183A): as the sequence (P14416 whole entry L174A) above, with A174L, I183A counted along it
Sequence of E181^ECL2A D2R (P14416 whole entry E181A): as the sequence (P14416 whole entry L174A) above, with A174L, E181A counted along it
Sequence of S197^5.46A D2R (P14416 whole entry S197A): as the sequence (P14416 whole entry L174A) above, with A174L, S197A counted along it
Sequence of dopamine D2 receptor (D2R; D2SR; SNAP-D2SR) (Homo sapiens, UniProt P14416, F110A) (P14416 1-414 isoform P14416-2 F110A): as the sequence (P14416 1-414 isoform P14416-2) above, with F110A counted along it
Sequence of N186^ECL2A D2R (P14416 whole entry N186A): as the sequence (P14416 whole entry L174A) above, with A174L, N186A counted along it
Sequence of dopamine D2 receptor (D2R; D2SR; SNAP-D2SR) (Homo sapiens, UniProt P14416, F202A) (P14416 1-414 isoform P14416-2 F202A): as the sequence (P14416 1-414 isoform P14416-2) above, with F202A counted along it

COCCCCN1CCN(c2cccc(Cl)c2Cl)CC1 [compound 4]
Ki [1]: 0.02 µM

CCCN1CCN(c2cccc(Cl)c2Cl)CC1 [compound 2]
Ki [1]: 0.0182 µM

CCCCN1CCN(c2cccc(Cl)c2Cl)CC1 [compound 3]
Ki [1]: 0.00501 µM

CCCN(CCC)CCc1cccc2c1CC(=O)N2 [ropinirole]
pKA [2]: determine the functional affinity and efficacy of dopamine and ropinirole | Ki [1]: 6.61 µM | Ki [3]: 9.77 µM | Ki [4]: 2.24 µM | Ki [5]: 7.76 µM | Ki [6]: 42.7 µM | Ki [7]: 100 µM | Ki [8]: 18.6 µM | Ki [9]: 3.72 µM | Ki [10]: 3.02 µM | Ki [11]: 12.3 µM | Ki [12]: 8.51 µM | Ki [13]: 3.16 µM | Ki [14]: 4.27 µM

NCCc1ccc(O)c(O)c1 [dopamine]
pKA [2]: determine the functional affinity and efficacy of dopamine and ropinirole

Clc1cccc(N2CCNCC2)c1Cl [compound 1, DCPP]
cAMP (BRET Biosensor) / pKA [15]: 6.49 ± 0.18 | Ki [1]: 0.575 µM

CCCCN1CCN(c2ccccc2OC)CC1 [compound 12]
Ki [1]: 0.0933 µM
